# Laboratory results reported in paper PMC9643456, “Matching amino acids membrane preference profile to improve activity of antimicrobial peptides” (Communications Biology, 2022).
# Where two headings read alike, the source gives them in different places. Ends that are not written are not given here.
# How the values were obtained:
# human red blood cells = assay: Hemolytic activity; type: cell-based; settings: red cells of human, 18 h
# In short: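 Peptides (100 μM down to 0.78 μM) were incubated with 4% final human erythrocytes in PBS for 18 h at 37 °C. Supernatant absorbance at 540 nm after centrifugation was scaled to 1% Triton X-100 (100%) and no peptide (0%); melittin served as positive control; triplicate runs.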
# [1] = Maximum soluble concentration / turbidity; type: physicochemical
# Description: Supplementary Methods Bacteria preparation, Antimicrobial peptides preparation, Minimal-inhibitory-concentration measurements, Hemolysis-activity measurements, Tryptophan fluorescence measurements, Isothermal titration calorimetry measurements, Bacteria membrane ion permeation measurements, Outer-inner membrane permeation, Field-emission scanning electron microscopy and Antimicrobial kinetics were performed as described in Materials and Methods. Liposome (LUV) preparation. Bacterial-membrane-mimic DMPC/DMPG unilamellar vesicles (LUV) and mammalian- membrane-mimic PC/cholesterol vesicles with 100-nm diameters were prepared by extrusion. LiposoFast Liposome Factory Basic unit with stabilizer (Avestin, Ottawa, Canada) was used to extrude liposomes 50 times through a polycarbonate membrane filter (pore diameter, 100 nm; filter diameter, 0.75 inches) (Avestin). […] rac-(1-glycerol)) (sodium salt) (DMPG) (Avanti, Alabama, USA); 1,2-Dimyristoyl-sn-glycero-3-phosphocholine (DMPC) (Avanti); and cholesterol (Sigma, Darmstadt, Germany) were used. For circular dichroism, isothermal titration calorimetry, tryptophan fluorescence, and dynamic light scattering experiments, liposomes were reconstructed and resuspendedwith phosphate-buffered saline (PBS; Welgene Inc, Gyeongsangbuk-do, Korea). For calcein-permeation tests, liposomes were reconstructed with calcein solutions (80 mM, 40 mM, 30 mM, 20 mM, and 10 mM) (Sigma, Darmstadt, Germany), purified with Sephadex-G50 columns (Pharmacia biotech, Stockholm, Sweden), and resuspended with PBS. Maximum-soluble -concentration measurements. […] turbidity with PBS. The lowest concentration of peptide without visible turbidity was determined to be the maximu m soluble concentration. Each experiment was performed at least twice. Circular dichroism (CD) spectrum. DMPC/PG -liposome, PC/cholesterol -liposome, and peptide stock solutions were diluted in PBS. For circular dichroism, PBS with neither liposome nor peptides was also prepared. Liposomes and peptides were mixed to […] Samples were transferred into type J/1 cuvettes (Jasco, Tokyo, Japan). Cuvettes were placed into the J -815 circular -dichroism spectrometer (Jasco, Tokyo, Japan). Measurement parameters were as follows: wavelength, 190 -260 nm; data pitch, 0.2 nm; bandwidth, 1.00 nm; […] Each experiment was performed in triplicate. Data below 197 nm was not analyzed because o f experimental difficulties in obtaining those spectra. Each experiment was performed at least twice. Artificial membrane calcein permeation measurements. Calcein fluorescence was used to measure peptide -induced liposome permeation. Calcein solutions (10 mM, 20 mM, or 60 mM) containing PC/PG liposomes and peptides were diluted in PBS ( ×1, ×2, ×3, ×8). […] Liposome solutions (180 μl) were transferred to wells of black, clear -bottomed 96 -well plates (Costar, New York, USA). Peptide […] Liposome-containing plates and peptide -containing plates were inserted into a Flexstation 3 Multi -Mode Microplate Reader (Molecular Devices, California, USA). Peptide solutions (20 μl) were transferred and mixed with liposome solution automatical ly after 30 sec. […] Measurement parameters were as follows: excitation, 490 nm; emission, 520 nm; temperature, 37 °C. […] was transferred and mixed with the liposome -peptide solu tions automatically after 300 sec to acquire fluorescence at maximum leakage. […] Fluorescence measured between 0 -300 sec after addition of 0 μg/ml peptide was considered the baseline. Each experiment was performed at least twice. Dynamic light scattering (DLS) measurements. Dynamic light scattering was used to measure peptide -induced liposome volume changes. PC/PG -liposome stock solutions and peptides were resuspended in PBS. Liposomes and peptides were mixed to […]
# MDR S. aureus = assay: microbe, parasite or virus in culture; settings: CAMHB plus 0.2% bovine serum albumin and 0.01% acetic acid; values marked * in Table 2
# In short: (§1)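 CLSI broth microdilution, CAMHB + Ca 50 mg/L, Mg 10 mg/L. Mid-log inoculum 5 × 10^5 CFU/ml final, 18 h, 37 °C. MIC = lowest peptide conc. with no visible turbidity by eye; triplicate.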
# MDR A. baumannii = assay: microbe, parasite or virus in culture
# In short: as §1
# MDR E. faecalis = assay: microbe, parasite or virus in culture; settings: CAMHB plus 0.2% bovine serum albumin and 0.01% acetic acid; values marked * in Table 2
# In short: as §1
# MDR P. aeruginosa = assay: microbe, parasite or virus in culture; settings: CAMHB plus 0.2% bovine serum albumin and 0.01% acetic acid; values marked * in Table 2
# In short: as §1
# K. pneumonia strains = assay: microbe, parasite or virus in culture; settings: Klebsiella pneumoniae
# Description: (§2) Twenty-six A. baumannii strains were clinically isolated and gifted to us by the Kyungpook National University School of Medicine. One A. baumannii strain (ATCC 17978) was purchased and gifted to us by Kyungpook National University School of Medicine. One A. baumannii strain and 10 K. pneumoniae strains (NCCP) were purchased from the National Culture Collection for Pathogens.
# (§3) To assess antimicrobial activity, the MIC50 and MIC90 were measured using broth microdilution following CLSI guidelines. […] Each experiment was performed in triplicate. Meropenem (Sigma, Darmstadt, Germany) and colistin were used as control antibiotics. Cation-adjusted Mueller–Hinton broth (CAMHB) (Becton, Dickinson and Company, Franklin Lakes, USA) with supplied calcium (50 mg/L) and magnesium (10 mg/L) was used for the CLSI-test condition. Bacteria in midlog phase and peptides were separately diluted in CAMHB. The bacteria and peptide solutions were then mixed in 96-well polyethylene plates (SPL, Gyeonggi-do, Korea) and incubated for 18 h at 37 °C. The final concentration for bacteria was 5 × 10^5 CFU/ml. […] The MIC was defined to be the lowest concentration of peptide without visible turbidity by comparing with control antibiotics with the unaided eye. […] Each experiment was performed in triplicate. MICs in albumin and acetic acid solutions were measured using the same protocol but with 0.2% bovine serum albumin (Bovogen, Keilor, Australia), 0.01% acetic acid (Merck, New Jersey, USA), and CAMHB with both calcium and magnesium. In addition, MICs used in the antibiotic resistance acquisition test, the outer–inner membrane permeation test, and the transmembrane potential test and for FE-SEM were individually determined. The final bacterial concentrations used were as follows: for resistance acquisition, optical density (OD) 0.01; for outer–inner membrane permeability assays (LB), OD 0.1; for the transmembrane potential test, 1 × 10^8 CFU/ml (OD 0.171); […]. Inhibitory activity unidentifiable by direct observation was determined by counting the CFUs. Each experiment was performed at least twice.
# A. baumannii strains = assay: microbe, parasite or virus in culture
# Description: as §2, §3
molecule,measurement,setting,value
RWLRWWIRV-NH2 [HLWCopW29-1],"Hemolysis percent, 25 μM",human red blood cells,1.20 ±0.14%
same,"Hemolysis percent, 50 μM",human red blood cells,1.35 ±0.11%
same,"Hemolysis percent, 100 μM",human red blood cells,16.39 ±2.19%
same,Maximum soluble concentration in PBS,"[1]; lyophilized peptide reconstructed in PBS at 200-6.25 μM, visible turbidity checked every 12 h for 5 days, at least twice",> 200 µM
same,"MIC in 0.2% albumin and 0.01% AcOH added CLSI standard condition, MDR S. aureus",MDR S. aureus,10 µM
same,"MIC in 0.2% albumin and 0.01% AcOH added CLSI standard condition, MDR A. baumannii","MDR A. baumannii; CAMHB plus 0.2% bovine serum albumin and 0.01% acetic acid, values marked * in Table 2",1.25 µM
same,"Minimum inhibitory concentrations, MDR A. baumannii","MDR A. baumannii; CLSI broth microdilution, CAMHB with 50 mg/L Ca2+, 10 mg/L Mg2+, 5 × 10^5 CFU/ml, 18 h 37 °C, triplicate, strain ATCC BAA-1605",2.5 µM
same,"MIC in 0.2% albumin and 0.01% AcOH added CLSI standard condition, MDR E. faecalis",MDR E. faecalis,10 µM
same,"MIC in 0.2% albumin and 0.01% AcOH added CLSI standard condition, MDR P. aeruginosa",MDR P. aeruginosa,20 µM
C[C@@H](O)[C@H]1C(=O)N2C(C(=O)O)=C(S[C@@H]3CN[C@H](C(=O)N(C)C)C3)[C@H](C)[C@H]12 [Meropenem],MIC,"K. pneumonia strains; read-out: MIC, K. pneumonia NCCP 15782",> 20 µM
same,MIC,"K. pneumonia strains; read-out: MIC, K. pneumonia NCCP 15864",> 20 µM
same,MIC,"K. pneumonia strains; read-out: MIC, K. pneumonia NCCP 15866",> 20 µM
same,MIC,"K. pneumonia strains; read-out: MIC, K. pneumonia NCCP 16052",> 20 µM
same,MIC,"K. pneumonia strains; read-out: MIC, K. pneumonia NCCP 16124",> 20 µM
same,MIC,"K. pneumonia strains; read-out: MIC, K. pneumonia NCCP 16125",> 20 µM
same,MIC,"K. pneumonia strains; read-out: MIC, K. pneumonia NCCP 16128",20 µM
same,MIC,"K. pneumonia strains; read-out: MIC, K. pneumonia NCCP 16208",> 20 µM
same,MIC,"K. pneumonia strains; read-out: MIC, K. pneumonia NCCP 16212",> 20 µM
same,MIC,"K. pneumonia strains; read-out: MIC, K. pneumonia NCCP 16213",> 20 µM
same,MIC50,A. baumannii strains; Acinetobacter baumannii,≥ 20 µM
same,MIC90,A. baumannii strains; Acinetobacter baumannii,≥ 20 µM
same,MIC,"A. baumannii strains; Acinetobacter baumannii, ATCC17978, read-out: MIC, A. baumannii ATCC 17978",< 0.31 µM
same,MIC,"A. baumannii strains; Acinetobacter baumannii, KCCM40203, read-out: MIC, A. baumannii KCCM 40203",5 µM
same,MIC,"A. baumannii strains; Acinetobacter baumannii, read-out: MIC, A. baumannii ATCC BBA 1605",> 20 µM
same,MIC,"A. baumannii strains; Acinetobacter baumannii, read-out: MIC, A. baumannii Isolated strain 1",> 20 µM
same,MIC,"A. baumannii strains; Acinetobacter baumannii, read-out: MIC, A. baumannii Isolated strain 3",> 20 µM
same,MIC,"A. baumannii strains; Acinetobacter baumannii, read-out: MIC, A. baumannii Isolated strain 6",> 20 µM
same,MIC,"A. baumannii strains; Acinetobacter baumannii, read-out: MIC, A. baumannii Isolated strain 10",> 20 µM
same,MIC,"A. baumannii strains; Acinetobacter baumannii, read-out: MIC, A. baumannii Isolated strain 14",> 20 µM
same,MIC,"A. baumannii strains; Acinetobacter baumannii, read-out: MIC, A. baumannii Isolated strain 15",< 0.31 µM
same,MIC,"A. baumannii strains; Acinetobacter baumannii, read-out: MIC, A. baumannii Isolated strain 16",> 20 µM
same,MIC,"A. baumannii strains; Acinetobacter baumannii, read-out: MIC, A. baumannii Isolated strain 19",> 20 µM
same,MIC,"A. baumannii strains; Acinetobacter baumannii, read-out: MIC, A. baumannii Isolated strain 22",> 20 µM
same,MIC,"A. baumannii strains; Acinetobacter baumannii, read-out: MIC, A. baumannii Isolated strain 39",> 20 µM
same,MIC,"A. baumannii strains; Acinetobacter baumannii, read-out: MIC, A. baumannii Isolated strain 44",> 20 µM
same,MIC,"A. baumannii strains; Acinetobacter baumannii, read-out: MIC, A. baumannii Isolated strain 66",> 20 µM
same,MIC,"A. baumannii strains; Acinetobacter baumannii, read-out: MIC, A. baumannii Isolated strain 68",> 20 µM
same,MIC,"A. baumannii strains; Acinetobacter baumannii, read-out: MIC, A. baumannii Isolated strain 69",> 20 µM
same,MIC,"A. baumannii strains; Acinetobacter baumannii, read-out: MIC, A. baumannii Isolated strain 71",> 20 µM
same,MIC,"A. baumannii strains; Acinetobacter baumannii, read-out: MIC, A. baumannii Isolated strain 76",> 20 µM
same,MIC,"A. baumannii strains; Acinetobacter baumannii, read-out: MIC, A. baumannii Isolated strain 80",> 20 µM
same,MIC,"A. baumannii strains; Acinetobacter baumannii, read-out: MIC, A. baumannii Isolated strain 82",> 20 µM
same,MIC,"A. baumannii strains; Acinetobacter baumannii, read-out: MIC, A. baumannii Isolated strain 86",> 20 µM
same,MIC,"A. baumannii strains; Acinetobacter baumannii, read-out: MIC, A. baumannii Isolated strain 89",> 20 µM
same,MIC,"A. baumannii strains; Acinetobacter baumannii, read-out: MIC, A. baumannii Isolated strain 102",> 20 µM
same,MIC,"A. baumannii strains; Acinetobacter baumannii, read-out: MIC, A. baumannii Isolated strain 127",> 20 µM
same,MIC,"A. baumannii strains; Acinetobacter baumannii, read-out: MIC, A. baumannii Isolated strain 141",> 20 µM
same,MIC,"A. baumannii strains; Acinetobacter baumannii, read-out: MIC, A. baumannii Isolated strain 144",> 20 µM
same,MIC,"A. baumannii strains; Acinetobacter baumannii, read-out: MIC, A. baumannii Isolated strain 147",> 20 µM
same,MIC,"A. baumannii strains; Acinetobacter baumannii, read-out: MIC, A. baumannii Isolated strain 152",> 20 µM
same,MIC,"A. baumannii strains; Acinetobacter baumannii, read-out: MIC, A. baumannii NCCP 14654",> 20 µM
same,Number of A. baumannii strains at MIC (μM) 0.63,A. baumannii strains; of 30 strains,0
same,Number of A. baumannii strains at MIC (μM) 1.25,A. baumannii strains; of 30 strains,0
same,Number of A. baumannii strains at MIC (μM) 2.5,A. baumannii strains; of 30 strains,0
same,Number of A. baumannii strains at MIC (μM) 5,A. baumannii strains; of 30 strains,1
same,Number of A. baumannii strains at MIC (μM) 10,A. baumannii strains; of 30 strains,0
same,Number of A. baumannii strains at MIC (μM) ≤0.31,A. baumannii strains; of 30 strains,2
same,Number of A. baumannii strains at MIC (μM) ≥20,A. baumannii strains; of 30 strains,27
"CC(C)C[C@H](NC(=O)[C@H](CCCNC(=N)N)NC(=O)CNC(=O)CNC(=O)[C@@H](N)CCCNC(=N)N)C(=O)N[C@H]1CSSC[C@@H](C(=O)N[C@H](C(=O)NCC(=O)N[C@@H](CCCNC(=N)N)C(N)=O)C(C)C)NC(=O)[C@H](C(C)C)NC(=O)[C@@H]2CSSC[C@H](NC(=O)[C@H](Cc3ccc(O)cc3)NC1=O)C(=O)N[C@@H](CCCNC(=N)N)C(=O)N[C@@H](CCCNC(=N)N)C(=O)N[C@@H](CCCNC(=N)N)C(=O)N[C@@H](Cc1ccccc1)C(=O)N2 [Protegrin-1, reference compound]","Hemolysis percent, 25 μM",human red blood cells,47.83 ±6.23%
same,"Hemolysis percent, 50 μM",human red blood cells,56.75 ±6.02%
same,"Hemolysis percent, 100 μM",human red blood cells,71.66 ±12.24%
same,solubility,[1]; distilled water,< 500 µM
